From patent publication US20110008465A1, “SESQUITERPENE FORMULATIONS, KITS AND METHODS OF USE THEREOF” (priority 2007, published 2011)

Assays:
Test in all cases: Chou and Talalay combination assay with beta-caryophyllene
Conditions in all cases: anticancer drug in combination with beta-caryophyllene; Chou and Talalay CI; 48 h
PC-3 (prostate cancer) = type: cell-based, human
Method: (§1) Each solution was prepared fresh and use within 1 hour after preparation.
(§2) Cells were then harvested using trypsine-EDTA. Cells were counted using a hemocytometer and resuspended in DMEM+10% FBS medium.
(§3) Proliferation assay: Increasing concentrations of the anticancer agents and/or beta-caryophyllene were added to 96-well plate (100 μL per well). The final concentration of solvent in the culture medium was maintained below 0.5% (volume/volume) to avoid solvent toxicity.
(§4) The cells were incubated for 48 h at 37° C. and 5% CO2. Cytotoxicity was assessed using the resazurin reduction test (O'Brien et al., 2000). Fluorescence was measured on an automated 96-well Fluoroskan Ascent FI™ plate reader (Labsystems) using excitation and emission wavelengths of 530 nm and 590 nm, respectively. Resazurin was then removed.
(§5) Microplates were frozen at −20° C. overnight. Plates were thawed, a volume of 100 μl of 0.01% SDS in water was added to the wells, the plates were shaken at room temperature for 3 hours and then frozen once more at −20° C. overnight. […] Plates were shaken in the dark (at room temperature) for at least 2 hours, and fluorescence was measured on an automated 96-well Fluoroskan Ascent FI™ plate reader (Labsystems) using excitation and emission wavelengths of 360 nm and 460 nm, respectively.

[1] = system: U-251 (human glioblastoma); type: cell-based
Method: as §1, §2, §3, §4, §5
(§6) Results were analyzed using the Chou and Talalay method (9) and may be interpreted as follow: Cl>1 represents an antagonist effect of beta-caryophyllene with the corresponding anticancer agent; Cl=1 represents an additive effect of beta-caryophyllene with the corresponding anticancer agent; Cl<1 represents a potentiating effect of beta-caryophyllene with the corresponding anticancer agent.

B16 (murine melanoma) = type: cell-based
Method: as §1, §2, §3, §4, §5, §6

[2] = system: GL-261 (murine glioblastoma); type: cell-based
Method: as §1, §2, §3, §4, §5, §6

MEL-2 (human melanoma) = type: cell-based
Method: as §1, §2, §3, §4, §5, §6

MCF-7 (breast cancer) = type: cell-based, human
Method: as §1, §2, §3, §4, §5, §6

DLD-1 (colon cancer) = type: cell-based, human
Method: as §1, §2, §3, §4, §5, §6

[3] = system: MDA-MB-231 (breast cancer); type: cell-based, human
Method: as §1, §2, §3, §4, §5, §6

A-549 (lung cancer) = type: cell-based, human
Method: as §1, §2, §3, §4, §5, §6

PA-1 (ovary cancer) = type: cell-based, human
Method: as §1, §2, §3, §4, §5, §6

O=c1[nH]cc(F)c(=O)[nH]1 [5-fluorouracil, 5-Fluorouracil]
Potentiating activity PC-3 (PC-3 (prostate cancer)): (2) (High: CI < 0.5 to IC50) | Potentiating activity U-251 [1]: (1) (Very High: potentiating or additive activity to IC20 and CI < 0.6 to IC50) | Potentiating activity B16 (B16 (murine melanoma)): (1) (Very High: potentiating or additive activity to IC20 and CI < 0.6 to IC50) | Potentiating activity GL-261 [2]: (3) (Moderate: 0.5 < CI < 0.8 to IC50) | Potentiating activity MEL-2 (MEL-2 (human melanoma)): (1) (Very High: potentiating or additive activity to IC20 and CI < 0.6 to IC50) | Potentiating activity MCF-7 (MCF-7 (breast cancer)): (1) (Very High: CI equal or below 1 at IC20 and Cl below 0.6 to IC50) | Potentiating activity DLD-1 (DLD-1 (colon cancer)): (3) (Moderate: 0.5 < CI < 0.8 at IC50) | Potentiating activity MDA [3]: (3) (Moderate: 0.5 < CI < 0.8 at IC50) | Potentiating activity A-549 (A-549 (lung cancer)): (6) (Antagonist effect: CI > 1) | Potentiating activity PA-1 (PA-1 (ovary cancer)): (2) (High: CI < 0.5 to IC50)

N.N.O=C([O-])C1(C(=O)[O-])CCC1.[Pt+2] [Carboplatin, carboplatin]
Potentiating activity PC-3 (PC-3 (prostate cancer)): (6) (Antagonist effect: CI > 1) | Potentiating activity U-251 [1]: (3) (Moderate: 0.5 < CI < 0.8 to IC50) | Potentiating activity B16 (B16 (murine melanoma)): (1) (Very High: potentiating or additive activity to IC20 and CI < 0.6 to IC50) | Potentiating activity GL-261 [2]: (2) (High: CI < 0.5 to IC50) | Potentiating activity MEL-2 (MEL-2 (human melanoma)): (3) (Moderate: 0.5 < CI < 0.8 to IC50) | Potentiating activity MCF-7 (MCF-7 (breast cancer)): (1) (Very High: CI equal or below 1 at IC20 and Cl below 0.6 to IC50) | Potentiating activity DLD-1 (DLD-1 (colon cancer)): (3) (Moderate: 0.5 < CI < 0.8 at IC50) | Potentiating activity MDA [3]: (3) (Moderate: 0.5 < CI < 0.8 at IC50) | Potentiating activity A-549 (A-549 (lung cancer)): (1) (Very High: CI equal or below 1 at IC20 and Cl below 0.6 to IC50) | Potentiating activity PA-1 (PA-1 (ovary cancer)): (3) (Moderate: 0.5 < CI < 0.8 to IC50)

O=NN(CCCl)C(=O)NCCCl [Carmustine, carmustine]
Potentiating activity PC-3 (PC-3 (prostate cancer)): (1) (Very High: potentiating or additive activity to IC20 and CI < 0.6 to IC50) | Potentiating activity U-251 [1]: (1) (Very High: potentiating or additive activity to IC20 and CI < 0.6 to IC50) | Potentiating activity B16 (B16 (murine melanoma)): (1) (Very High: potentiating or additive activity to IC20 and CI < 0.6 to IC50) | Potentiating activity GL-261 [2]: (1) (Very High: potentiating or additive activity to IC20 and CI < 0.6 to IC50) | Potentiating activity MEL-2 (MEL-2 (human melanoma)): (1) (Very High: potentiating or additive activity to IC20 and CI < 0.6 to IC50) | Potentiating activity MCF-7 (MCF-7 (breast cancer)): (1) (Very High: CI equal or below 1 at IC20 and Cl below 0.6 to IC50) | Potentiating activity DLD-1 (DLD-1 (colon cancer)): (2) (High: CI below 0.5 at IC50) | Potentiating activity MDA [3]: (3) (Moderate: 0.5 < CI < 0.8 at IC50) | Potentiating activity A-549 (A-549 (lung cancer)): (1) (Very High: CI equal or below 1 at IC20 and Cl below 0.6 to IC50) | Potentiating activity PA-1 (PA-1 (ovary cancer)): (1) (Very High: potentiating or additive activity to IC20 and CI < 0.6 to IC50)
